According to patent publication US10925872B2, “Methods of treating cochlear synaptopathy” (PIPELINE THERAPEUTICS, INC., priority 2016, dated 2021):

What was measured:
[1] = system: DCC α-fragment; test: DCC α-fragment Western blot, mouse ex vivo embryonic spinal cord; format: cell-based, CD-1 mice; settings: embryonic day 15 spinal cord segments, 1 μM, 24 h, normalized to actin
Source text: Previous reports have shown that DCC (deleted in colorectal cancer) is a γ-secretase substrate. DCC is the receptor for the guidance molecule, netrin, and its activation results in neuronal axon outgrowth, axon turning and synapse formation. Embryonic spinal cords of presenilin knockout mice treated display persistent expression of the DCC α-fragment; these fragments can enhance netrin-DCC mediated events, including axon outgrowth in cultured motor neurons (Taniguchi et al., 2003, J. Biol. Chem., 278:30425-30428, and Bai et al., 2011, Cell, 144(1): 106-18). The following studies were performed using GSM, “RO”, as well as the GSI, Compound I. RO has the structure:
Spinal cords from embryonic day 15 CD-1 mice were collected and cut into 1-2 mm segments and transferred to serum-free growth media (DMEM-F12, N2 and B27 serum supplements, penicillin/streptomycin) with 1 μM RO or 1 μM Compound I. Segments were cultured for 24 h (37° C., 5% CO2) then processed for Western blot. Membranes were probed with a DCC antibody recognizing the intracellular domain and bands were normalized to actin.

[2] = system: inner hair cell synapses; test: Mouse noise-induced cochlear synaptopathy, local GSI (synapse counts, ABR wave I); format: in vivo, CBA/J mice
Experimental: Two separate experiments were conducted using this protocol: in Experiment 1 (FIG. 7A) compound I treatment was compared to NT3, in Experiment 2 (FIG. 7B, 7C and FIG. 8) we evaluated two dose levels of compound I. For both experiments female CBA/J mice 6 weeks old (The Jackson Laboratory, Bar Harbor, Me.) were exposed, awake and unrestrained, to filtered octave band noise (8-16 kHz) for 2 hours at 98 dB SPL in a reverberant sound-exposure box. Mice were placed in a custom designed wire cage sitting atop high density 4-inch foam with the wire floor 1-inch above the foam. The noise waveform was generated and filtered with a TDT RZ6 pre-amplifier (Tucker Davis Technologies, Alachua, Fla.), amplified by a Crown XLS1000 power amplifier, and delivered by JBL 2426H Compression Driver coupled to a JBL 2730A horn. Sound levels were verified in the center of the cage using a ¼-inch condenser microphone (PCB Piezotronics, Depew, N.Y.) before each exposure. ABR was collected 1 and 14 days post-noise exposure to ensure a temporary threshold shift with no permanent threshold shift. Seventeen days after noise, mice were dosed bilaterally with crystalline Compound I, (2% in PF10*) or NT3 (2 μL of 150 ng/μL) (Experiment 1); crystalline Compound I (2% and 0.2% in PF10) (Experiment 2); and ABR was collected 14 days post-dose. Vehicle control animals received bilateral injections of PF10. Age matched naïve control animals were also used.
ABR Wave I analysis: The auditory brain-stem response (ABR) waveform comprises a set of waves (labeled I-V). Mice were anesthetized with ketamine and xylazine. ABR waveforms were collected using Tucker-Davis Technologies RZ6 Auditory Processor. The stimuli used were 5 ms tone (2 ms cos 2 rise-fall) at frequencies from 4, 8, 16, 24, and 32 kHz delivered in alternating polarity at 21/s. […] Wave I peak amplitudes were determined by extracting the raw waveform voltage averages and determining the window or latency at which the peak of wave I appears. […]

[3] = system: inner hair cell synapses; test: Guinea pig kanamycin-induced cochlear synaptopathy model; format: in vivo, Hartley guinea pigs; settings: kanamycin 400 mg/kg i.p. 10 days; 30 μl of 2% in vehicle bilateral transtympanic on day 15; three months after
Experimental: Beginning on day 0, male Hartley guinea pigs (450-500 g) were deafened by intraperitoneal administration of kanamycin (400 mg/kg) dosed once daily for 10 consecutive days. […] A loss of synapse density in this model has not been described previously. On day 15, animals received bilateral transtympanic injections of vehicle (30 μl), crystalline Compound I (30 μl of 2% in vehicle), or crystalline Compound II (30 μl of 2% in vehicle). Three months after administration of test article, animals were euthanized and cochleae collected and stained with phalloidin and antibodies against CtBP2 and NF-200. The number of CtBP2+/NF-200+ synapses were quantified and normalized to the number of inner hair cells to obtain synapse density. Synapse density was decreased with kanamycin treatment at 14.7 and 17.3 mm from the apex of the cochlea, which in the guinea pig cochlea, tonally correlates with 16 and 32 kHz, respectively, according to the Greenwood frequency map.
Vehicle (PF10) and GSI in vehicle used in Examples 6 and 7 were prepared as follows: To 129 mL sterile water was added, 0.96 g sodium chloride, 0.59 g sodium phosphate dibasic, and 0.14 g sodium phosphate monobasic. The solution was stirred at ambient temperature and 25.6 g poloxamer 407 was added and stirred overnight to yield a clear solution. […]

[4] = both 0.2% and 2% dosages in PF10, bilateral, 17 days after noise, 14 days post-dose

What does the source list for `C[C@H](OC(=O)NCC(F)(F)C(F)(F)F)C(=O)N[C@@H]1C(=O)Nc2ccccc2-c2ccccc21` [Compound I, (2,2,3,3,3-pentafluoropropyl)-carbamic acid (S)-1-((S)-6-oxo-6,7-dihydro-5H-dibenzo[b,d]azepin-7-ylcarbamoyl) ethyl ester]?
DCC α-fragment level compared to the vehicle group [1]: Increase in α-fragment; synapse recovery in the mid 1 region (16-24 kHz) [2, 4]: nearly complete synapse recovery; synapse recovery in the mid 2 region (24-32 kHz) [2, 4]: nearly complete synapse recovery; ABR wave I amplitudes ([2]; local administration following noise induced synaptopathy): improved wave I amplitudes; synapse density (CtBP2+/NF-200+ synapses per inner hair cell) [3]: increased
